Measured values: patent US11912693B2, “Compounds for modulating S1P1 activity and methods of using the same” (TREVENA, INC., priority 2017, dated 2024)

How the values were obtained:
[1] = target: T1, human sphingosine-1-phosphate receptor 1 (S1P1) (Homo sapiens (Human), UniProt P21453); test: Inhibition of cAMP production (HTRF cAMP HiRange), S1P1 CHO-K1 cells; format: cell-based; conditions: for Emax: CHO-K1, read-out: hS1P1 cAMP SPAN; for hS1P1 cAMP pEC50: inhibition of cAMP production, S1P1 CHO-K1 cells
Outline: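 CHO-K1 cells stably co-expressing human S1P1 (C-terminal Prolink tag) and EA-β-arrestin2 were grown in AssayComplete Media 6 at 37° C. and 5% CO2, plated, and incubated overnight. Agonist-driven inhibition of intracellular cAMP was read by TR-FRET with the HTRF cAMP HiRange kit on a PheraStar reader. Potency is pEC50, and efficacy (SPAN) is normalized to fingolimod.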
Target sequence in this assay (P21453 whole entry, looked up): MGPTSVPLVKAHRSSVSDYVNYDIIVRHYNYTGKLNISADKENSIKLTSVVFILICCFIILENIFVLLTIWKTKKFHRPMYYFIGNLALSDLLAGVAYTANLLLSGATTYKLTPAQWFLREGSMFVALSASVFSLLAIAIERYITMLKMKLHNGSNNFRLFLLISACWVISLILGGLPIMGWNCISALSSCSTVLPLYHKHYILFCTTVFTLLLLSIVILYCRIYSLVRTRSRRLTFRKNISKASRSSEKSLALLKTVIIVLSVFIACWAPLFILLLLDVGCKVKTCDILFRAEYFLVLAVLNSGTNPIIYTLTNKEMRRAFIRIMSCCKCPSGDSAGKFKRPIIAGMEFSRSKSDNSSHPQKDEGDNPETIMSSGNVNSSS

[2] = target: T1, human sphingosine-1-phosphate receptor 1 (S1P1); test: β-Arrestin2 recruitment assay (PathHunter), S1P1 CHO-K1 cells; format: cell-based; conditions: for Emax: CHO-K1, read-out: hS1P1 B-arrestin2 SPAN; for hS1P1 B-arrestin2 pEC50: β-arrestin2 recruitment, S1P1 CHO-K1 cells
Outline: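 Enzyme-fragment complementation read-out: agonist-driven β-arrestin2 binding to ProLink-tagged human S1P1 in stable CHO-K1 cells restores β-galactosidase, measured 1 h at room temperature after a 60 min 37° C. compound incubation. Potency as pEC50, efficacy relative to fingolimod (SPAN).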
Target sequence in this assay (P21453 whole entry, looked up): as above
Target sequence in this assay (P32121 whole entry partner, looked up): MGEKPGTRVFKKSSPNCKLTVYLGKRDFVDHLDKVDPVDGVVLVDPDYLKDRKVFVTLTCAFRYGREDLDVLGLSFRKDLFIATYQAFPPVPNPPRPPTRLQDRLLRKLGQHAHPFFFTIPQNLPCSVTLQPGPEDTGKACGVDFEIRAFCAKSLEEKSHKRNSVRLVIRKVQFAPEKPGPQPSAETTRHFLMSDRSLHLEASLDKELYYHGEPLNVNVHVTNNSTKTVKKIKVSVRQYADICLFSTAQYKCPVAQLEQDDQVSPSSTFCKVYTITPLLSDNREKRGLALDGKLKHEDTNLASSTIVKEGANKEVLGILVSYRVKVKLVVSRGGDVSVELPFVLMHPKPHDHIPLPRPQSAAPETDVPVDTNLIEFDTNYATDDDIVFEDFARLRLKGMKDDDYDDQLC

[3] = target: human sphingosine-1-phosphate receptor 2 (S1P2) (Homo sapiens (Human), UniProt O95136); test: Inositol monophosphate production (IP-one TB kit), S1P2 CHO-K1 cells; format: cell-based; conditions: for Emax: CHO-K1, read-out: hS1P2 IP-one SPAN; for hS1P2 IP-one pEC50: inositol monophosphate accumulation
Procedure: (§1) Stable clonal Chinese hamster ovary K1 (CHO-K1) cells co-expressing EA-β-arrestin2 and the human sphingosine-1-phosphate receptor 2 (NM_004230.3, S1P2), human sphingosine-1-phosphate receptor 3 (NM_005226, S1P3) and sphingosine-1-phosphate receptor 5 (NM_001166215.1, S1P5) with a C-terminal Prolink™ tag were purchased from DiscoverX corporation (S1P2: Cat #93-0256C2, S1P3: Cat #93-0217C2, S1P5: Cat #93-0583C2).
(§2) Cell lines were cultured in AssayComplete™ Media 6 (DiscoverX Corporation, Cat #: 920018GF2) at 37° C. and 5% CO2 in a humidified CO2 and temperature-controlled incubator. To begin assay plating, cells were washed with dulbecco's phosphate buffered saline (CellGro, Cat #: 21-031-CV) and lifted from the culturing flask by incubation (37° C., 5 min) with CellStripper (Cellgro, Cat #: 25-056-CI). […] Plated cells were incubated overnight at 37° C. and 5% CO2 in a humidified CO2 and temperature-controlled incubator.
S1P2 Agonist-promoted G-protein responses were determined by measuring changes in intracellular inositol monophosphate using the IP-one TB kit (CisBio, Cat #: 62IPAPEJ) based on time-resolved fluorescence resonance energy transfer (TR-FRET) technology. AssayComplete™ Cell Plating 2 Reagent was removed and replaced with 1× IP-one stimulation buffer (as per manufacturer's instructions) along with test or control compounds at the desired concentrations. Following a 60-minute incubation at 37° C. and 5% CO2 in a humidified CO2 and temperature-controlled incubator, the components of the IP-one TB kit were added as per the manufacturer's instructions. After an hour incubation at room temperature, plates were analyzed by a BMG PheraStar microplate reader.
(§3) The tables below include the efficacy of the compound as compared to a positive control, referred to as “SPAN”. These values are normalized to fingolimod, a known agonist of the sphingosine-1-phosphate 3 and 5 receptor or CYM5520, a known agonist of the sphingosine-1-phosphate 2 receptor. The tables also include potency values (pEC50) for modulating discrete receptor-mediated activities (inhibition of cAMP production or inositol monophosphate accumulation).

[4] = target: human sphingosine-1-phosphate receptor 3 (S1P3) (Homo sapiens (Human), UniProt Q99500); test: Inhibition of cAMP production (HTRF), S1P3 CHO-K1 cells; format: cell-based; conditions: for Emax: CHO-K1, read-out: hS1P3 cAMP SPAN; for hS1P3 cAMP pEC50: inhibition of cAMP production
Procedure: as §1, §2
(§4) S1P3 and S1P5 Agonist-promoted G-protein responses were determined by measuring changes in intracellular cAMP using the HTRF® cAMP HiRange kit (CisBio, Cat #: 62AM6PEJ) based on time-resolved fluorescence resonance energy transfer (TR-FRET) technology. […] Following a 30-minute room temperature incubation the components of the cAMP HiRange kit were added as per the manufacturer's instructions. After an hour incubation at room temperature, plates were analyzed by a BMG PheraStar microplate reader.
as §3

[5] = target: sphingosine-1-phosphate receptor 5 (S1P5) (Homo sapiens (Human), UniProt Q9H228); test: Inhibition of cAMP production (HTRF), S1P5 CHO-K1 cells; format: cell-based; conditions: for Emax: CHO-K1, read-out: hS1P5 cAMP SPAN; for hS1P5 cAMP pEC50: inhibition of cAMP production
Procedure: as §1, §2, §4, §3

[6] = tested on: paclitaxel induced peripheral neuropathy; test: Reversal of allodynia induced by paclitaxel in mice (s.c. or p.o., von Frey frequency method); format: in vivo, c57bl/6 mice; conditions: Mus musculus, sc, 0.5 h, 1 mg/kg s.c., tested 30 min after dosing, read-out: Screen @ 1 mg/kg sc (% MPE)
Outline: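 Neuropathy was induced in mice by paclitaxel (6 mg/kg i.p., days 1, 3, 5, 7) or oxaliplatin (4 mg/kg i.p., days 1-5), with re-testing about 14 days later. Compounds were given s.c. (tested at 30 min) or p.o. (tested at 60 min; paclitaxel only). A 0.4 g von Frey filament was applied ten times per paw, and % non-response was converted to % MPE.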

[7] = efficacy (SPAN) normalized to fingolimod
[8] = efficacy normalized to fingolimod

Sequence of human sphingosine-1-phosphate receptor 2 (S1P2) (O95136 whole entry): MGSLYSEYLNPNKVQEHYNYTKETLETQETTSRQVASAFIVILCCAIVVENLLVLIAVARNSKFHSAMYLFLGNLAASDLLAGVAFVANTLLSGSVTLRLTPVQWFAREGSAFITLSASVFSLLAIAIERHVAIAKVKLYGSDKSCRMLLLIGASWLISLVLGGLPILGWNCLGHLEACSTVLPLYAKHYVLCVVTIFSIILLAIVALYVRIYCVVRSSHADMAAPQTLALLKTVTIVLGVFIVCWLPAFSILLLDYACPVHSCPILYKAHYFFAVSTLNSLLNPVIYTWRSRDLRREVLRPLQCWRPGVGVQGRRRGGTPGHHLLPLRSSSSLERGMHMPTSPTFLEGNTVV
Sequence of sphingosine-1-phosphate receptor 5 (S1P5) (Q9H228 whole entry): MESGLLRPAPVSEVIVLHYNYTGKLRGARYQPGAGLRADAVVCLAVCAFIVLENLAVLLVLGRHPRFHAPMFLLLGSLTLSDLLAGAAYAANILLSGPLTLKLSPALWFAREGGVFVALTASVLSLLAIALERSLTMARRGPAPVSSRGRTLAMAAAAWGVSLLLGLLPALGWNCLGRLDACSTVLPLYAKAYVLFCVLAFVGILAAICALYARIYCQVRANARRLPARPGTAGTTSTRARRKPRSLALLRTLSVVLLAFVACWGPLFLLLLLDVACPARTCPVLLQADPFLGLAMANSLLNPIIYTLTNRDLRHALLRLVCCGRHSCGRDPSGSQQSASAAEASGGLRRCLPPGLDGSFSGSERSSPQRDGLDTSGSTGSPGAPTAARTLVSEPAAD
Sequence of human sphingosine-1-phosphate receptor 3 (S1P3) (Q99500 whole entry): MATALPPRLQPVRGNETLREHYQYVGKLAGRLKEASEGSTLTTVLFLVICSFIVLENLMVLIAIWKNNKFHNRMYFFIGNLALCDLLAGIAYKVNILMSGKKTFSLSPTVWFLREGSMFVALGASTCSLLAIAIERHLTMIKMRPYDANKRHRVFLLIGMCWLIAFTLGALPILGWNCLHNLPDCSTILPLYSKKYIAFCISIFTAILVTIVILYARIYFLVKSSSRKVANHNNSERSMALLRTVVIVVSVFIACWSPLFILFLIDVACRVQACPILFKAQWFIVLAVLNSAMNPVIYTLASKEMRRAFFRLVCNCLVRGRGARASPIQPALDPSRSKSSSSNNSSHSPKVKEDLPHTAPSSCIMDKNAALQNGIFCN

Structure (SMILES)	Emax [1, 7] [%]	hS1P1 cAMP pEC50 [1]	Emax [2, 7] [%]	hS1P1 B-arrestin2 pEC50 [2]	Emax ([3]; efficacy normalized to CYM5520) [%]	hS1P2 IP-one pEC50 [3]	Emax [4, 8] [%]	hS1P3 cAMP pEC50 [4]	Emax [5, 8] [%]	hS1P5 cAMP pEC50 [5]	inhibition in vivo at 1 mg/kg [6] [%]	hS1P1 cAMP SPAN [1, 7]	hS1P1 B-arrestin2 SPAN [2, 7]	hS1P2 IP-one SPAN ([3]; efficacy normalized to CYM5520)	hS1P3 cAMP SPAN [4, 8]	hS1P5 cAMP SPAN [5, 8]
C=CCNc1ccc(-c2nc(-c3ccc4[nH]ncc4c3)no2)cc1C#N [Compound 141, 5-(3-(1H-indazol-5-yl)-1,2,4-oxadiazol-5-yl)-2-(allylamino)benzonitrile]	> 75	>6.5	> 75	>5	< 50	<5.0	> 50	>5.0	> 50	>5.0						
C=CCNc1ccc(-c2nc(-c3ccc(NS(C)(=O)=O)cc3)no2)cc1C#N [Compound 149, N-(4-(5-(4-(allylamino)-3-cyanophenyl)-1,2,4-oxadiazol-3-yl)phenyl)methanesulfonamide]	> 75	>6.5	> 75	>5	< 50	<5.0	> 50	>5.0	> 50	>5.0	< 50					
CCC1(CC)CC(=O)c2cc(-c3nc(-c4ccc5[nH]ncc5c4)no3)ccc2O1 [Compound 152, 6-(3-(1H-indazol-5-yl)-1,2,4-oxadiazol-5-yl)-2,2-diethylchroman-4-one]		<6.5		>5		<5.0		<5.0		<5.0		>75	>75	<50	<50	<50
C=CCNc1ccc(-c2nc(-c3ccc4[nH]cnc4c3)no2)cc1C#N [Compound 177, 5-(3-(1H-benzo[d]imidazol-5-yl)-1,2,4-oxadiazol-5-yl)-2-(allylamino)benzonitrile]	> 75	>6.5	> 75	>5	< 50	<5.0	> 50	>5.0	> 50	>5.0	> 50					
CCC1(CC)CC(=O)c2cc(-c3nc(-c4ccc(C(=O)NC)cc4)no3)ccc2O1 [Compound 185, 4-(5-(2,2-diethyl-4-oxochroman-6-yl)-1,2,4-oxadiazol-3-yl)-N-methylbenzamide]	> 75	>6.5	> 75	>5	< 50	<5.0	< 50	<5.0	> 50	<5.0	> 50					
CC(C)n1nnc2cc(-c3nc4c(o3)Cc3ccccc3-4)ccc21 [Compound 219, 5-{8H-indeno[1,2-d][1,3]oxazol-2-yl}-1-(propan-2-yl)-1H-1,2,3-benzotriazole]		>6.5		>5		>5.0		<5.0		<5.0						
CCC1(CC)CC(=O)c2cc(-c3nc(-c4ccccc4Cl)no3)ccc2O1 [Compound 221, 6-(3-(2-chlorophenyl)-1,2,4-oxadiazol-5-yl)-2,2-diethylchroman-4-one]		>6.5		>5		<5.0		>5.0		>5.0	< 50					
COc1cnccc1-c1nc(-c2ccc3c(ccn3C(C)C)c2)no1 [Compound 391, 3-(1-isopropyl-1H-indol-5-yl)-5-(3-methoxypyridin-4-yl)-1,2,4-oxadiazole]		>6.5		>5		>5.0		>5.0		>5.0						
COc1ccccc1-c1nc(-c2ccc3c(ccn3C(C)C)c2)no1 [Compound 398, 3-(1-isopropyl-1H-indol-5-yl)-5-(2-methoxyphenyl)-1,2,4-oxadiazole]		>6.5		>5		<5.0		<5.0		<5.0						
COc1ccccc1-c1nnc(-c2ccc3c(c2)oc(=O)n3C)o1 [Compound 406, 6-[5-(2-methoxyphenyl)-1,3,4-oxadiazol-2-yl]-3-methyl-2,3-dihydro-1,3-benzoxazol-2-one]		>6.5		>5		<5.0		<5.0		<5.0						
Cc1ccncc1-c1noc(-c2ccc3c(c2)nnn3C2CCC2)n1 [Compound 417, 1-cyclobutyl-5-[3-(4-methylpyridin-3-yl)-1,2,4-oxadiazol-5-yl]-1H-1,2,3-benzotriazole]		>6.5		>5		>5.0		<5.0		<5.0						
CC(C)Nc1ccc(-c2nc(-c3ccc4oc(=O)[nH]c4c3)no2)cc1C#N [Compound 422, 2-(isopropylamino)-5-(3-(2-oxo-2,3-dihydrobenzo[d]oxazol-5-yl)-1,2,4-oxadiazol-5-yl)benzonitrile]		>6.5		>5		>5.0		>5.0								
CCC1(CC)CC(=O)c2cc(-c3nc(-c4ccc5[nH]c(=O)oc5c4)no3)ccc2O1 [Compound 445, 6-(5-(2,2-diethyl-4-oxochroman-6-yl)-1,2,4-oxadiazol-3-yl)benzo[d]oxazol-2(3H)-one]		>6.5		>5		>5.0		<5.0								
CC(C)Nc1ccc(-c2nc(-c3ccc4c(c3)NC(=O)C4)no2)cc1C#N [Compound 496, 2-(isopropylamino)-5-(3-(2-oxoindolin-6-yl)-1,2,4-oxadiazol-5-yl)benzonitrile]		>6.5		>5		<5.0		<5.0								
